{
  "source": "patent US7476666B2",
  "about": "“HIV integrase inhibitors” (Merck & Co., Inc., priority 2004, dated 2009)",
  "data": [
    {"test_system": "acute HIV infection of T-lymphoid cells", "assay": "Inhibition of acute HIV infection of T-lymphoid cells (spread assay)", "format": "cell-based", "details": "Human immunodeficiency virus 1", "description": "An assay for the inhibition of acute HIV infection of T-lymphoid cells (alternatively referred to herein as the “spread assay”) was conducted in accordance with Vacca, J. P. et al., Proc. Natl. Acad. Sci. USA 1994, 91: 4096.", "units": {"IC95": "µM"}, "values": [
      {"smiles": "CN1C[C@H](c2ccccc2)n2nc(C(=O)NCc3ccc(F)cc3C(N)=O)c(O)c2C1=O", "note": "[Example 42, (7S)-N-[2-(Aminocarbonyl)-4-fluorobenzyl]-3-hydroxy-5-methyl-4-oxo-7-phenyl-4,5,6,7-tetrahydropyrazolo[1,5-a]pyrazine-2-carboxamide]", "IC95": "≤ 10"},
      {"smiles": "CNC(=O)c1cc(F)ccc1CNC(=O)c1nn2c(c1O)C(=O)N(C)C[C@@H]2c1ccccc1", "note": "[Example 33, (7S)—N-{4-Fluoro-2-[(methylamino)carbonyl]benzyl}-3-hydroxy-5-methyl-4-oxo-7-phenyl-4,5,6,7-tetrahydropyrazolo[1,5-a]pyrazine-2-carboxamide]", "IC95": "≤ 10"},
      {"smiles": "O=C(c1nn2c(c1O)C(=O)N(Cc1ccc(F)cc1)CC2)N1CCC1", "note": "[Example 27, 2-(Azetidin-1-ylcarbonyl)-5-(4-fluorobenzyl)-3-hydroxy-4-oxo-4,5,6,7-tetrahydropyrazolo[1,5-a]pyrazine]", "IC95": "≤ 10"},
      {"smiles": "CN1CC(c2ccncc2)n2nc(C(=O)NCc3ccc(F)c(Cl)c3)c(O)c2C1=O", "note": "(stereo not drawn) [Example 46, N-(3-Chloro-4-fluorobenzyl)-3-hydroxy-5-methyl-4-oxo-7-pyridin-4-yl-4,5,6,7-tetrahydropyrazolo[1,5-a]pyrazine-2-carboxamide]", "IC95": "≤ 10"},
      {"smiles": "CN1CC(c2ccccc2)n2nc(C(=O)NCc3ccc(F)cc3)c(O)c2C1=O", "note": "(stereo not drawn) [Example 2, N-(4-Fluorobenzyl)-3-hydroxy-5-methyl-4-oxo-7-phenyl-4,5,6,7-tetrahydropyrazolo[1,5-a]pyrazine-2-carboxamide]", "IC95": "≤ 10"},
      {"smiles": "O=C(NCCN1CCOCC1)c1nn2c(c1O)C(=O)N(Cc1ccc(F)cc1)CC2", "note": "[Example 23, 5-(4-Fluorobenzyl)-3-hydroxy-N-[2-(4-morpholinyl)ethyl]-4-oxo-4,5,6,7-tetrahydropyrazolo[1,5-a]pyrazine-2-carboxamide]", "IC95": "≤ 10"},
      {"smiles": "O=C(NCc1ccc(Cl)c(Cl)c1)c1nn2c(c1O)C(=O)N(CCN1CCOCC1)CC2", "note": "[Example 22, N-(3,4-Dichlorobenzyl)-3-hydroxy-5-[2-(4-morpholinyl)ethyl]-4-oxo-4,5,6,7-tetrahydropyrazolo[1,5-a]pyrazine-2-carboxamide]", "IC95": "≤ 10"},
      {"smiles": "Cc1cn(C)c(=O)c2c(O)c(C(=O)NCc3ccc(F)cc3)nn12", "note": "[Example 10, 5,7-Dimethyl-N-(4-fluorobenzyl)-3-hydroxy-4-oxo-4,5-dihydropyrazolo[1,5-a]pyrazine-2-carboxamide]", "IC95": "≤ 10"},
      {"smiles": "CCNC(=O)c1cc(F)ccc1CNC(=O)c1nn2c(c1O)C(=O)N(C)C[C@H]2c1ccccc1", "note": "[Example 39, (7R)-N-{2-[(Ethylamino)carbonyl]-4-fluorobenzyl}-3-hydroxy-5-methyl-4-oxo-7-phenyl-4,5,6,7-tetrahydropyrazolo[1,5-a]pyrazine-2-carboxamide]", "IC95": "≤ 10"},
      {"smiles": "CNC(=O)c1cc(F)ccc1CNC(=O)c1nn2c(c1O)C(=O)N(C)CC2c1ccccn1", "note": "(stereo not drawn) [Example 47, N-{4-Fluoro-2-[(methylamino)carbonyl]benzyl}-3-hydroxy-5-methyl-4-oxo-7-pyridin-2-yl-4,5,6,7-tetrahydropyrazolo[1,5-a]pyrazine-2-carboxamide]", "IC95": "≤ 10"},
      {"smiles": "CCNC(=O)c1cc(F)ccc1CNC(=O)c1nn2c(c1O)C(=O)N(C)C[C@@H]2c1ccccc1", "note": "[Example 40, (7S)-N-{2-[(Ethylamino)carbonyl]-4-fluorobenzyl}-3-hydroxy-5-methyl-4-oxo-7-phenyl-4,5,6,7-tetrahydropyrazolo[1,5-a]pyrazine-2-carboxamide]", "IC95": "≤ 10"},
      {"smiles": "CN1C[C@@H](c2ccccc2)n2nc(C(=O)NCc3ccc(F)cc3C(N)=O)c(O)c2C1=O", "note": "[Example 41, (7R)-N-[2-(Aminocarbonyl)-4-fluorobenzyl]-3-hydroxy-5-methyl-4-oxo-7-phenyl-4,5,6,7-tetrahydropyrazolo[1,5-a]pyrazine-2-carboxamide]", "IC95": "≤ 10"},
      {"smiles": "CN1CC(c2cccnc2)n2nc(C(=O)NCc3ccc(F)cc3)c(O)c2C1=O", "note": "(stereo not drawn) [Example 31, N-(4-fluorobenzyl)-3-hydroxy-5-methyl-4-oxo-7-pyridin-3-yl-4,5,6,7-tetrahydropyrazolo[1,5-a]pyrazine-2-carboxamide]", "IC95": "≤ 10"},
      {"smiles": "Cn1c(=O)c2c(O)c(C(=O)NCc3ccc(F)cc3)nn2c2ccccc21", "note": "[Example 32, N-(4-fluorobenzyl)-3-hydroxy-5-methyl-4-oxo-4,5-dihydropyrazolo[1,5-a]quinoxaline-2-carboxamide]", "IC95": "≤ 10"},
      {"smiles": "CN(Cc1ccc(F)cc1)C(=O)c1nn2c(c1O)C(=O)N(C)CC2", "note": "[Example 13, 2-[4-fluorobenzyl(methyl)aminocarbonyl]-3-hydroxy-5-methyl-4-oxo-4,5,6,7-tetrahydropyrazolo[1,5-a]pyrazine-2-carboxamide]", "IC95": "≤ 10"},
      {"smiles": "O=C(NCc1ccc(Cl)c(Cl)c1)c1nn2c(c1O)C(=O)N(CC(=O)N1CCOCC1)CC2", "note": "[Example 20, N-(3,4-Dichlorobenzyl)-3-hydroxy-5-[2-(4-morpholinyl)-2-oxoethyl]-4-oxo-4,5,6,7-tetrahydropyrazolo[1,5-a]pyrazine-2-carboxamide]", "IC95": "≤ 10"},
      {"smiles": "CC(C)C1CN(C)C(=O)c2c(O)c(C(=O)NCc3ccc(F)cc3)nn21", "note": "(stereo not drawn) [Example 48, N-(4-Fluorobenzyl)-3-hydroxy-7-isopropyl-5-methyl-4-oxo-4,5,6,7-tetrahydropyrazolo[1,5-a]pyrazine-2-carboxamide]", "IC95": "≤ 10"},
      {"smiles": "CN(C)C(=O)c1cc(F)ccc1CNC(=O)c1nn2c(c1O)C(=O)N(C)C[C@H]2c1ccccc1", "note": "[Example 37, (7R)-N-{2-[(Dimethylamino)carbonyl]-4-fluorobenzyl}-3-hydroxy-5-methyl-4-oxo-7-phenyl-4,5,6,7-tetrahydropyrazolo[1,5-a]pyrazine-2-carboxamide]", "IC95": "≤ 10"},
      {"smiles": "O=C(NCc1ccc(F)cc1)c1nn2c(c1O)C(=O)NCCC2", "note": "[Example 29, N-(4-Fluorobenzyl)-3-hydroxy-4-oxo-5,6,7,8-tetrahydro-4H-pyrazolo[1,5-a][1,4]diazepine-2-carboxamide]", "IC95": "≤ 10"},
      {"smiles": "CN1CC(c2ccncc2)n2nc(C(=O)NCc3ccc(F)cc3)c(O)c2C1=O", "note": "(stereo not drawn) [Example 45, N-(4-Fluorobenzyl)-3-hydroxy-5-methyl-4-oxo-7-pyridin-4-yl-4,5,6,7-tetrahydropyrazolo[1,5-a]pyrazine-2-carboxamide]", "IC95": "≤ 10"},
      {"smiles": "CNC(=O)c1cc(F)ccc1CNC(=O)c1nn2c(c1O)C(=O)N(C)CC2C(C)C", "note": "(stereo not drawn) [Example 49, N-{4-Fluoro-2-[(methylamino)carbonyl]benzyl}-3-hydroxy-7-isopropyl-5-methyl-4-oxo-4,5,6,7-tetrahydropyrazolo[1,5-a]pyrazine-2-carboxamide]", "IC95": "≤ 10"},
      {"smiles": "CN(C)C(=O)C1(C)CN(C)C(=O)c2c(O)c(C(=O)NCc3ccc(F)cc3)nn21", "note": "(stereo not drawn) [Example 8, 5,7-Dimethyl-N-(4-fluorobenzyl)-3-hydroxy-7-(dimethylaminocarbonyl)-4-oxo-4,5,6,7-tetrahydropyrazolo[1,5-a]pyrazine-2-carboxamide]", "IC95": "≤ 10"},
      {"smiles": "COC(=O)c1nn2c(c1O)C(=O)N(Cc1ccc(F)cc1)CCC2", "note": "[Example 30, Methyl 5-(4-Fluorobenzyl)-3-hydroxy-4-oxo-5,6,7,8-tetrahydro-4H-pyrazolo[1,5-a][1,4]diazepine-2-carboxylate]", "IC95": "≤ 10"},
      {"smiles": "CN1C[C@H](c2ccccc2)n2nc(C(=O)NCc3ccc(F)cc3C(=O)NC3CC3)c(O)c2C1=O", "note": "[Example 36, (7S)-N-{2-[(Cyclopropylamino)carbonyl]-4-fluorobenzyl}-3-hydroxy-5-methyl-4-oxo-7-phenyl-4,5,6,7-tetrahydropyrazolo[1,5-a]pyrazine-2-carboxamide]", "IC95": "≤ 10"}
    ]}
  ]
}
